Assay results taken from article PMC3051820 (The Journal of Cell Biology, 2011).

Target: mitochondrial complex I (Mus musculus, UniProt P03888+Q91WD5+Q9DC70)
Assay: polarography: oxygen consumption in cells with complex I-specific substrates
Format: cell-based

Sequence of mitochondrial complex I (Q91VD9 24-727): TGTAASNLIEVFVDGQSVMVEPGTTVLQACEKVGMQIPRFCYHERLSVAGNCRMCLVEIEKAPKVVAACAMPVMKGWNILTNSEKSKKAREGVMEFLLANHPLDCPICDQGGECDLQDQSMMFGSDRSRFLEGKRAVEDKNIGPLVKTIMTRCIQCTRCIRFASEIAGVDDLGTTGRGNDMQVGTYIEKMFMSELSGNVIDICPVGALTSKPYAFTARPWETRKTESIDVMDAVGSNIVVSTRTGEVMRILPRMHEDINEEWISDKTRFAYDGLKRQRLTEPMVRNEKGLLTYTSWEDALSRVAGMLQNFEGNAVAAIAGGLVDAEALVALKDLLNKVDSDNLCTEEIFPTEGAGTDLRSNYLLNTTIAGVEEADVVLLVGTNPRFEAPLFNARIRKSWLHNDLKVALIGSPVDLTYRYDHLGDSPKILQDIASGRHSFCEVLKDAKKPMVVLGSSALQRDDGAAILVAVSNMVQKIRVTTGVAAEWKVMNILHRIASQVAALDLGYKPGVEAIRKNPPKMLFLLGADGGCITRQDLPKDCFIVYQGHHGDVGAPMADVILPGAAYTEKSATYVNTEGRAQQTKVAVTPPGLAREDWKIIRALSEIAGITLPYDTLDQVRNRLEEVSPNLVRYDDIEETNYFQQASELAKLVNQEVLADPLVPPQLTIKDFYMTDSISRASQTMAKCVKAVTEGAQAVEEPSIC
Sequence of mitochondrial complex I (Q91WD5 34-463): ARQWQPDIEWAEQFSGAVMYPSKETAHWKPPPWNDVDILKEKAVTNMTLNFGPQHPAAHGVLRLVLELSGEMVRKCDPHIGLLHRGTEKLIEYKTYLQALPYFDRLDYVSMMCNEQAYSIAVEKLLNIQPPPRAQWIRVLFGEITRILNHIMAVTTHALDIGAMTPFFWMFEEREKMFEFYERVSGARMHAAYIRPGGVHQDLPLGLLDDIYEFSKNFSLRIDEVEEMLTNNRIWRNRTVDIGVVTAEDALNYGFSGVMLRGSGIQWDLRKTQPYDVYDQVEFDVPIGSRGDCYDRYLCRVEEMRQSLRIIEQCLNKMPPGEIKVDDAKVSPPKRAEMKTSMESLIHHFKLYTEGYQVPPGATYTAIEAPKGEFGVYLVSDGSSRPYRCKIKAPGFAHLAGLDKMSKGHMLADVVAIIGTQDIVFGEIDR
Sequence of mitochondrial complex I (P03888 whole entry): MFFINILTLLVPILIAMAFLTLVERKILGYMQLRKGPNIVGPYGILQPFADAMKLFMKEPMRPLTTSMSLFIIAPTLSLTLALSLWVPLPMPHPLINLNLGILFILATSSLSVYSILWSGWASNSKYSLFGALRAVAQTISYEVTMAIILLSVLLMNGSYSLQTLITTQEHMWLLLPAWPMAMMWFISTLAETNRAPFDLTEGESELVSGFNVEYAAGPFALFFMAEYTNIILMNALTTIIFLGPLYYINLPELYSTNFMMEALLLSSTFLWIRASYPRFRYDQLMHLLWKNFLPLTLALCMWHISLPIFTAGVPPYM
Sequence of mitochondrial complex I (Q9DC70 36-224): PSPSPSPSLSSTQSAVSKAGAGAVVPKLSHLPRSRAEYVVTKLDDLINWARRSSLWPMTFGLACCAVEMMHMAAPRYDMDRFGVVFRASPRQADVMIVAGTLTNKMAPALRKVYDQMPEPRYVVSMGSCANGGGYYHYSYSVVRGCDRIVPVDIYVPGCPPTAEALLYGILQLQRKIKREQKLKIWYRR
Sequence of mitochondrial complex I (Q91YT0 21-464, further chain): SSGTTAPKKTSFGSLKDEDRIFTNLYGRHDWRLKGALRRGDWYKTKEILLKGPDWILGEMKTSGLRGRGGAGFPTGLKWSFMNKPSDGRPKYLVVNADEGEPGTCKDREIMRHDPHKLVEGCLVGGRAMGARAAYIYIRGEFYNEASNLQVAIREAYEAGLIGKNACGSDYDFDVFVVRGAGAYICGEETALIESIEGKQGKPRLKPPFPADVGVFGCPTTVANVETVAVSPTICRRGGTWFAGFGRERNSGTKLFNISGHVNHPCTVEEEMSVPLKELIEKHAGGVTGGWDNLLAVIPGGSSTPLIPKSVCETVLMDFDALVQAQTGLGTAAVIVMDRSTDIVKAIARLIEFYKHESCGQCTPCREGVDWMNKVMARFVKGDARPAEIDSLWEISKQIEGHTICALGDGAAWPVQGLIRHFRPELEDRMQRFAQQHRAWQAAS

SMILES | IC50
C/C=C(\C)[C@H](O)[C@H](C)/C=C(C)/C=C/C/C(C)=C/Cc1nc(OC)c(OC)c(O)c1C [piericidin A] | 10 nM
C=C(C)[C@H]1Cc2c(ccc3c2O[C@@H]2COc4cc(OC)c(OC)cc4[C@@H]2C3=O)O1 [rotenone] | 20 nM
